{
  "source": "BindingDB's records for patent US20250213705",
  "about": "(Bright Peak Therapeutics, 2025)",
  "key": {"[1]": {"target": "T1, Glutamate carboxypeptidase 2 (Homo sapiens, UniProt Q04609)", "T1 sequence (Q04609 whole entry)": "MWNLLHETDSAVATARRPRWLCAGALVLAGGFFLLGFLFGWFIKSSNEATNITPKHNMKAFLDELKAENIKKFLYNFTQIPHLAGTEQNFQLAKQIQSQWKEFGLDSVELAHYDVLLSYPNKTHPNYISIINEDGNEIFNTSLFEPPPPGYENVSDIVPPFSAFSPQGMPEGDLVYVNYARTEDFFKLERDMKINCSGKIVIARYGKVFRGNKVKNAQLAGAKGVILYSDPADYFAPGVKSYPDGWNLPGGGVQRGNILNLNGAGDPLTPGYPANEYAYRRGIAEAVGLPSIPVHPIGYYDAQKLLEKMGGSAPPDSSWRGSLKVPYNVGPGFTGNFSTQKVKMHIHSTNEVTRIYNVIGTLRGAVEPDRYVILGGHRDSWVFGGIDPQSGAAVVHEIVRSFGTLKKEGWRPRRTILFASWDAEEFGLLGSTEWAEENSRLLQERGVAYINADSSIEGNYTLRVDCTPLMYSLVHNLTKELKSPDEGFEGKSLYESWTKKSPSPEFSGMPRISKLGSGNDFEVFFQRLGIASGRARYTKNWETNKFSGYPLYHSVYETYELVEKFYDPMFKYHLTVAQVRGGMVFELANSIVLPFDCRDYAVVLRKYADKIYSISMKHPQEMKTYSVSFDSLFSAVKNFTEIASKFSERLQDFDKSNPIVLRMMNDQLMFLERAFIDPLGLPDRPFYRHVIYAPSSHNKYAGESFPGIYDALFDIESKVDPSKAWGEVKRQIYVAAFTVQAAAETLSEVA", "assay": "Inhibition Assay", "experimental": "Prepare a working solution of 100 μM Amplex Red reagent containing 0.25 U/mL HRP, 0.08 U/mL L-glutamate oxidase, 0.5 U/mL 1-glutamate-pyruvate transaminase, 200 μM L-alanine and keep protected from light. […] Final concentration is 5 nM. Transfer 10 μl/well of the inhibitor solution previously prepared in a separate 96 wells/plate. […] Incubate the reactions for 30 min at 37° C., protected from light. Because the assay is continuous (not terminated), fluorescence may be measured at multiple time points to follow the kinetics of the reactions. Measure the fluorescence in a fluorescence microplate reader using excitation in the range of 530-560 nm and emission detection at ˜590 nm. Ec50s were determined with GraphPad Prism. Ki is calculated based on Cheng-Prusoff equation."}, "[2]": {"target": "T1, Glutamate carboxypeptidase 2", "assay": "SPR Analysis", "experimental": "The interaction of PSMA-binding variants with human FOLH1 was measured with Surface Plasmon Resonance (SPR) technology. Biotinylated FOLH1 was captured at a concentration of 30 μg/mL onto a Streptavidin chip. […] After each cycle, needles were washed with 50% DMSO. To measure the association to the FOLH1 protein, the samples were injected with a flow rate of 30 μL/min for 90 s, followed by 1200 s buffer only to detect the dissociation. The used running buffer was 1×PBS with 0.05% Tween20 and 2% DMSO. The relative response units (RU, Y-axis) are plotted against time (s, X-axis) and analyzed in a kinetic 1:1 binding model. In a different setup, biotinylated FOLH1 was captured at a concentration of 0.8 μg/mL and the running buffer was 1×PBS with 0.05% Tween20."}},
  "data": [
    {"smiles": "CC(=O)NCCOCCOCCOCCC(=O)NC[C@H]1CC[C@H](C(=O)N[C@@H](Cc2ccc3ccccc3c2)C(=O)NCCCC[C@H](NC(=O)N[C@@H](CC(=O)O)C(=O)O)C(=O)O)CC1", "note": "[US20250213705, Compound 23]", "values": [
      {"measurement": "IC50", "setting": "[1]", "result": 7010, "unit": "nM"},
      {"measurement": "Ki", "setting": "[1]", "result": 50.1, "unit": "nM"},
      {"measurement": "Kd", "setting": "[2]", "result": 120, "unit": "nM"}
    ]},
    {"smiles": "CC(=O)NCCOCCOCCOCCC(=O)NC[C@H]1CC[C@H](C(=O)N[C@@H](Cc2ccc3ccccc3c2)C(=O)NCCCC[C@H](NC(=O)N[C@@H](CS)C(=O)O)C(=O)O)CC1", "note": "[US20250213705, Compound 28]", "values": [
      {"measurement": "IC50", "setting": "[1]", "result": 21300, "unit": "nM"},
      {"measurement": "Ki", "setting": "[1]", "result": 152, "unit": "nM"}
    ]},
    {"smiles": "CC(=O)NCCOCCOCCOCCC(=O)NC[C@H]1CC[C@H](C(=O)N[C@@H](CCCCNC(=O)C(F)(F)F)C(=O)NCCCC[C@H](NC(=O)N[C@@H](CCC(=O)O)C(=O)O)C(=O)O)CC1", "note": "[US20250213705, Compound 54]", "values": [
      {"measurement": "IC50", "setting": "[1]", "result": 89, "unit": "nM"},
      {"measurement": "Ki", "setting": "[1]", "result": 0.636, "unit": "nM"}
    ]},
    {"smiles": "CC(=O)NCCOCCOCCOCCC(=O)N(CCCOc1cc(C#N)cc(C#N)c1)CC(=O)N[C@@H](Cc1ccc2ccccc2c1)C(=O)NCCCC[C@H](NC(=O)N[C@@H](CCC(=O)O)C(=O)O)C(=O)O", "note": "[US20250213705, Compound 78]", "values": [
      {"measurement": "IC50", "setting": "[1]", "result": 6.95, "unit": "nM"},
      {"measurement": "Ki", "setting": "[1]", "result": 0.05, "unit": "nM"},
      {"measurement": "Kd", "setting": "[2]", "result": 0.43, "unit": "nM"}
    ]},
    {"smiles": "CC(=O)NCCOCCOCCOCCC(=O)N1C[C@H](NC(=O)CCCOc2cc(C#N)cc(C#N)c2)C[C@H]1C(=O)N[C@@H](Cc1ccc2ccccc2c1)C(=O)NCCCC[C@H](NC(=O)N[C@@H](CCC(=O)O)C(=O)O)C(=O)O", "note": "[US20250213705, Compound 80]", "values": [
      {"measurement": "IC50", "setting": "[1]", "result": 2.35, "unit": "nM"},
      {"measurement": "Ki", "setting": "[1]", "result": 0.017, "unit": "nM"},
      {"measurement": "Kd", "setting": "[2]", "result": 2.46, "unit": "nM"}
    ]},
    {"smiles": "CC(=O)NCCOCCOCCOCCC(=O)N[C@@H]1C[C@@H](C(=O)N[C@@H](Cc2ccc3ccccc3c2)C(=O)NCCCC[C@H](NC(=O)N[C@@H](CCC(=O)O)C(=O)O)C(=O)O)N(C(=O)COc2cc(C#N)cc(C#N)c2)C1", "note": "[US20250213705, Compound 81]", "values": [
      {"measurement": "IC50", "setting": "[1]", "result": 10.7, "unit": "nM"},
      {"measurement": "Ki", "setting": "[1]", "result": 0.076, "unit": "nM"},
      {"measurement": "Kd", "setting": "[2]", "result": 4.12, "unit": "nM"}
    ]},
    {"smiles": "CC(=O)NCCCC[C@H](NC(=O)[C@H]1CC[C@H](CNC(=O)CCOCCOCCOCCNC(C)=O)CC1)C(=O)NCCCC[C@H](NC(=O)N[C@@H](CCC(=O)O)C(=O)O)C(=O)O", "note": "[US20250213705, Compound 83]", "values": [
      {"measurement": "IC50", "setting": "[1]", "result": 2.87, "unit": "nM"},
      {"measurement": "Ki", "setting": "[1]", "result": 0.021, "unit": "nM"}
    ]},
    {"smiles": "CC(=O)NCCOCCOCCOCCC(=O)N[C@@H](Cc1cccc(C(=O)O)c1)C(=O)NCC(=O)N[C@@H](Cc1ccc2ccccc2c1)C(=O)NCCCC[C@H](NC(=O)N[C@@H](CCC(=O)O)C(=O)O)C(=O)O", "note": "[US20250213705, Compound 84]", "values": [
      {"measurement": "IC50", "setting": "[1]", "result": 5.11, "unit": "nM"},
      {"measurement": "Kd", "setting": "[2]", "result": 1.05, "unit": "nM"}
    ]},
    {"smiles": "CC(=O)NCCOCCOCCOCCC(=O)N(CCCOc1cc(C(F)(F)F)cc(C(F)(F)F)c1)CC(=O)N[C@@H](Cc1ccc2ccccc2c1)C(=O)NCCCC[C@H](NC(=O)N[C@@H](CCC(=O)O)C(=O)O)C(=O)O", "note": "[US20250213705, Compound 86]", "values": [
      {"measurement": "IC50", "setting": "[1]", "result": 59.2, "unit": "nM"},
      {"measurement": "Ki", "setting": "[1]", "result": 0.423, "unit": "nM"},
      {"measurement": "Kd", "setting": "[2]", "result": 1.17, "unit": "nM"}
    ]},
    {"smiles": "CC(=O)NCCOCCOCCOCCC(=O)N1C[C@H](NC(=O)CCCOc2cc(C#N)cc(C#N)c2)C[C@H]1C(=O)NCC(=O)N[C@@H](Cc1ccc2ccccc2c1)C(=O)NCCCC[C@H](NC(=O)N[C@@H](CCC(=O)O)C(=O)O)C(=O)O", "note": "[US20250213705, Compound 91]", "values": [
      {"measurement": "IC50", "setting": "[1]", "result": 26.1, "unit": "nM"},
      {"measurement": "Ki", "setting": "[1]", "result": 0.187, "unit": "nM"},
      {"measurement": "Kd", "setting": "[2]", "result": 3.6, "unit": "nM"}
    ]},
    {"smiles": "CC(=O)NCCOCCOCCOCCC(=O)N[C@@H]1C[C@@H](C(=O)NCC(=O)N[C@@H](Cc2ccc3ccccc3c2)C(=O)NCCCC[C@H](NC(=O)N[C@@H](CCC(=O)O)C(=O)O)C(=O)O)N(C(=O)CCCOc2cc(C#N)cc(C#N)c2)C1", "note": "[US20250213705, Compound 92]", "values": [
      {"measurement": "IC50", "setting": "[1]", "result": 79.7, "unit": "nM"},
      {"measurement": "Ki", "setting": "[1]", "result": 0.57, "unit": "nM"},
      {"measurement": "Kd", "setting": "[2]", "result": 1.01, "unit": "nM"}
    ]},
    {"smiles": "CC(=O)NCCOCCOCCOCCC(=O)N[C@@H](Cc1ccc(C(=O)O)cc1)C(=O)NCC(=O)N[C@@H](Cc1ccc2ccccc2c1)C(=O)NCCCC[C@H](NC(=O)N[C@@H](CCC(=O)O)C(=O)O)C(=O)O", "note": "[US20250213705, Compound 94]", "values": [
      {"measurement": "IC50", "setting": "[1]", "result": 1.87, "unit": "nM"},
      {"measurement": "Ki", "setting": "[1]", "result": 0.013, "unit": "nM"},
      {"measurement": "Kd", "setting": "[2]", "result": 2.33, "unit": "nM"}
    ]}
  ]
}
